# Reference: patent US20060069132A1, “Azolecarboxamide herbicides” (priority 2004, published 2006)
# Key:
# rice [1] = test: Test B flooded paddy test; assay type: in vivo, Oryza sativa; conditions: 1000 g ai/ha, visual rating, scale 0 to 100 (0 no effect, 100 complete control), 13 to 15 days
# Method in brief: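 Paddy species grown to the 2-leaf stage under flooding; blackgrass sprayed postemergence at 2–18 cm (1- to 4-leaf stage). Plants kept in a greenhouse for 13 to 15 days, then visually rated against controls on 0 (no effect) to 100 (complete control).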
# wild oat = test: Test B postemergence herbicide test; assay type: in vivo, Avena fatua; conditions: scale 0 (no effect) to 100 (complete control)
# Method in brief: (§1)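 After treating 2-leaf paddy plants or 2–18 cm postemergence plants (1 to 4 leaves) with formulated chemical, researchers kept them in a greenhouse for 13–15 days. Effects were judged visually versus controls: 0 indicates none, 100 total control.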
# Surinam grass = test: Test B pre-/postemergence herbicide test; assay type: in vivo, Urochloa decumbens; conditions: scale 0 (no effect) to 100 (complete control)
# Method in brief: (§2)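 Test chemicals in a non-phytotoxic solvent mixture with surfactant were applied preemergence to seeded species and postemergence to plants 2-18 cm tall (1- to 4-leaf stage); rice and barnyardgrass were also tested in a flooded paddy at the 2-leaf stage. Visual rating versus controls after 13-15 days in greenhouse, scale 0 (no effect) to 100 (complete control).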
# velvetleaf [2] = test: Test B pre-/postemergence herbicide test; assay type: in vivo, Abutilon theophrasti; conditions: scale 0 (no effect) to 100 (complete control)
# Method in brief: as §2
# rice [3] = test: Test B pre-/postemergence herbicide test; assay type: in vivo, Oryza sativa; conditions: preemergence
# Method in brief: as §2
# barnyardgrass [4] = test: Test B pre-/postemergence herbicide test; assay type: in vivo, Echinochloa crus-galli
# Method in brief: (§3)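 Visual rating, 0 (no effect) to 100 (complete control), versus untreated controls after 13–15 d in greenhouse. Pre- and postemergence applications (postemergence plants 2–18 cm, 1–4 leaves); flooded paddy arm at 2-leaf stage. Compounds in non-phytotoxic solvent plus surfactant.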
# cocklebur = test: Test B pre-/postemergence herbicide test; assay type: in vivo, Xanthium strumarium; conditions: scale 0 (no effect) to 100 (complete control)
# Method in brief: as §3
# giant foxtail [5] = test: Test A pre-/postemergence herbicide test; assay type: in vivo, Setaria faberi
# Method in brief: (§4)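 Both application timings were run together: directed soil spray over freshly planted seeds in sandy loam, and runoff spray onto 2–10 cm seedlings. Evaluation after ~10 days in greenhouse used a 0–100 visual scale versus untreated controls.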
# large crabgrass [6] = test: Test B pre-/postemergence herbicide test; assay type: in vivo, Digitaria sanguinalis; conditions: scale 0 (no effect) to 100 (complete control)
# Method in brief: as §2
# pigweed = test: Test B pre-/postemergence herbicide test; assay type: in vivo, Amaranthus retroflexus
# Method in brief: as §2
# morningglory [7] = test: Test B pre-/postemergence herbicide test; assay type: in vivo, Ipomoea coccinea
# Method in brief: as §3
# [8] = system: small flower umbrella sedge; test: Test B flooded paddy test; assay type: in vivo, Cyperus difformis; conditions: 1000 g ai/ha, visual rating, scale 0 to 100 (0 no effect, 100 complete control), 13 to 15 days
# Method in brief: (§5)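 Visual ratings, 0 (no effect) to 100 (complete control), made versus controls after 13–15 d greenhouse. Paddy plants treated at 2-leaf stage; postemergence plants at 1- to 4-leaf stage, 2–18 cm tall.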
# ducksalad = test: Test B flooded paddy test; assay type: in vivo, Heteranthera limosa; conditions: 1000 g ai/ha, visual rating, scale 0 to 100 (0 no effect, 100 complete control), 13 to 15 days
# Method in brief: as §5
# barnyardgrass [9] = test: Test A pre-/postemergence herbicide test; assay type: in vivo, Echinochloa crus-galli
# Method in brief: as §4
# giant foxtail [10] = test: Test B pre-/postemergence herbicide test; assay type: in vivo, Setaria faberi
# Method in brief: as §2
# corn = test: Test B pre-/postemergence herbicide test; assay type: in vivo, Zea mays
# Method in brief: as §2
# blackgrass = test: Test B postemergence herbicide test; assay type: in vivo, Alopecurus myosuroides; conditions: scale 0 (no effect) to 100 (complete control)
# Method in brief: as §5
# redroot pigweed = test: Test A pre-/postemergence herbicide test; assay type: in vivo, Amaranthus retroflexus
# Method in brief: as §4
# morningglory [11] = test: Test A pre-/postemergence herbicide test; assay type: in vivo, Ipomoea spp.
# Method in brief: as §4
# barnyardgrass [12] = test: Test B flooded paddy test; assay type: in vivo, Echinochloa crus-galli; conditions: 1000 g ai/ha, visual rating, scale 0 to 100 (0 no effect, 100 complete control), 13 to 15 days
# Method in brief: as §5
# velvetleaf [13] = test: Test A pre-/postemergence herbicide test; assay type: in vivo, Abutilon theophrasti
# Method in brief: as §4
# wheat = test: Test B postemergence herbicide test; assay type: in vivo, Triticum aestivum; parameters: key to Wheat plant response rating: 0 = no effect, 100 = complete control; conditions: scale 0 (no effect) to 100 (complete control)
# Method in brief: as §1
# large crabgrass [14] = test: Test A pre-/postemergence herbicide test; assay type: in vivo, Digitaria sanguinalis
# Method in brief: as §4
# lambsquarters = test: Test B pre-/postemergence herbicide test; assay type: in vivo, Chenopodium album
# Method in brief: as §2
# [15] = Postemergence, 500 g ai/ha, visual rating after 13 to 15 days
# [16] = postemergence, 125 g ai/ha, visual rating
# [17] = 500 g ai/ha, visual rating 0-100, 0 no effect, 100 complete control, preemergence
# [18] = Postemergence, 500 g ai/ha, visual rating after 13 to 15 days, scale 0 (no effect) to 100 (complete control)
# [19] = postemergence, 125 g ai/ha, visual rating, scale 0 (no effect) to 100 (complete control)
# [20] = preemergence, 125 g ai/ha, 0 to 100 scale, 0 is no effect, 100 is complete control
# [21] = Postemergence, 500 g ai/ha, 0 to 100 scale, 0 no effect, 100 complete control
# [22] = Postemergence, 2000 g ai/ha, 0 to 100 scale, 0 no effect, 100 complete control
# [23] = Preemergence, 500 g ai/ha, visual rating, 0 to 100 scale (0 no effect, 100 complete control)
# [24] = Preemergence, 2000 g ai/ha, 0 to 100 scale, 0 no effect, 100 complete control
smiles,measurement,setting,value
CCn1nc(C(C)(C)C)cc1C(=O)Nc1cccc(C(=O)OCCF)c1C [Compound 91],Rice plant response rating,rice [1],10
same,"Plant response rating, Oat, Wild",wild oat; [15],10
same,"Oat, Wild plant response rating",wild oat; [16],0
same,"Plant response rating, Surinam Grass",Surinam grass; [15],10
same,Surinam Grass plant response rating,Surinam grass; [16],10
same,"Plant response rating, Velvetleaf",velvetleaf [2]; [15],10
same,Velvetleaf plant response rating,velvetleaf [2]; [16],0
same,"Plant response rating, Rice","rice [3]; 500 g ai/ha, visual rating 0-100, 0 no effect, 100 complete control",10
same,"Plant response rating, Rice","rice [3]; 125 g ai/ha, 0 to 100 scale, 0 is no effect, 100 is complete control",0
same,"Plant response rating, Barnyardgrass",barnyardgrass [4]; [17],10
same,"Plant response rating, Barnyardgrass",barnyardgrass [4]; [18],0
same,Barnyardgrass plant response rating,barnyardgrass [4]; [19],0
same,"Plant response rating, Barnyardgrass",barnyardgrass [4]; [20],0
same,"Plant response rating, Cocklebur",cocklebur; [15],10
same,Cocklebur plant response rating,cocklebur; [16],0
same,"Foxtail, Giant plant response rating",giant foxtail [5]; [21],0
same,"Plant response rating, Foxtail, Giant",giant foxtail [5]; [22],0
same,"Foxtail, Giant plant response rating",giant foxtail [5]; [23],0
same,"Foxtail, Giant plant response rating",giant foxtail [5]; [24],30
same,"Plant response rating, Crabgrass, Large",large crabgrass [6]; [15],10
same,"Crabgrass, Large plant response rating",large crabgrass [6]; [16],0
same,"Plant response rating, Pigweed",pigweed; [17],0
same,"Plant response rating, Pigweed",pigweed; [18],10
same,Pigweed plant response rating,pigweed; [19],10
same,"Plant response rating, Pigweed",pigweed; [20],0
same,"Plant response rating, Morningglory",morningglory [7]; [17],10
same,"Plant response rating, Morningglory",morningglory [7]; [18],0
same,Morningglory plant response rating,morningglory [7]; [19],0
same,"Plant response rating, Morningglory",morningglory [7]; [20],0
same,"Sedge, Umbrella plant response rating",[8],60
same,Ducksalad plant response rating,ducksalad,30
same,Barnyardgrass plant response rating,barnyardgrass [9]; [21],0
same,"Plant response rating, Barnyardgrass",barnyardgrass [9]; [22],0
same,Barnyardgrass plant response rating,barnyardgrass [9]; [23],0
same,Barnyardgrass plant response rating,barnyardgrass [9]; [24],15
same,"Plant response rating, Foxtail, Giant",giant foxtail [10]; [17],10
same,"Plant response rating, Foxtail, Giant",giant foxtail [10]; [18],0
same,"Foxtail, Giant plant response rating",giant foxtail [10]; [19],0
same,"Plant response rating, Foxtail, Giant",giant foxtail [10]; [20],10
same,"Plant response rating, Corn",corn; [17],10
same,"Plant response rating, Corn",corn; [18],10
same,Corn plant response rating,corn; [19],10
same,"Plant response rating, Corn",corn; [20],0
same,"Plant response rating, Blackgrass",blackgrass; [15],0
same,Blackgrass plant response rating,blackgrass; [16],0
same,Pigweed plant response rating,redroot pigweed; [21],0
same,"Plant response rating, Pigweed",redroot pigweed; [22],20
same,Pigweed plant response rating,redroot pigweed; [23],0
same,Pigweed plant response rating,redroot pigweed; [24],55
same,Morningglory plant response rating,morningglory [11]; [21],0
same,"Plant response rating, Morningglory",morningglory [11]; [22],0
same,Morningglory plant response rating,morningglory [11]; [23],0
same,Morningglory plant response rating,morningglory [11]; [24],10
same,Barnyardgrass plant response rating,barnyardgrass [12],0
same,Velvetleaf plant response rating,velvetleaf [13]; [21],5
same,"Plant response rating, Velvetleaf",velvetleaf [13]; [22],10
same,Velvetleaf plant response rating,velvetleaf [13]; [23],5
same,Velvetleaf plant response rating,"velvetleaf [13]; Preemergence, 2000 g ai/ha, visual rating, 0 to 100 scale (0 no effect, 100 complete control)",20
same,"Plant response rating, Wheat",wheat; [15],10
same,Wheat plant response rating,wheat; [16],0
same,"Crabgrass, Large plant response rating",large crabgrass [14]; [21],10
same,"Plant response rating, Crabgrass, Large",large crabgrass [14]; [22],20
same,"Crabgrass, Large plant response rating",large crabgrass [14]; [23],0
same,"Crabgrass, Large plant response rating",large crabgrass [14]; [24],35
same,"Plant response rating, Lambsquarters",lambsquarters; [17],30
same,"Plant response rating, Lambsquarters",lambsquarters; [18],30
same,Lambsquarters plant response rating,lambsquarters; [19],20
same,"Plant response rating, Lambsquarters",lambsquarters; [20],0
